Results reported in patent publication US6395787B1, “Ocular hypotensive lipids” (Allergan Sales, Inc., priority 2000, dated 2002).
pEC50, pIC50: −log10 of the molar value.

Experiments:
[1] = target: T1, human FP receptor (Homo sapiens, UniProt P43088); assay: Radioligand binding competition vs 3H-17-phenyl PGF2α, recombinant human FP receptor; parameters: expressed in transfected cells; settings: for % specific binding mean χ ± SEM: vs 5nM 3H-17-phenyl PGF2α, n = 3
Method: (§1) Plasma membrane preparations of HEK 293 cells stably transfected with the human or feline FP receptor were obtained as follows. Cells washed with TME buffer were scraped from the bottom of the flasks and homogenized for 30 sec using a Brinkman PT 10/35 polytron. TME buffer was added as necessary to achieve a 40 ml volume in the centrifuge tubes. TME is comprised of 100 mM TRIS base, 20 mM Mg Cl2, 2 m EDTA; physiological pH is achieved by adding 10 N HCl. The cell homogenate was centrifuged at 19,000 rpm for 20 min at 4-6° C. using a Beckman Ti-60 rotor. The pellet was then resuspended in TME buffer to provide a final protein concentration of 1 mg/ml, as determined by Biorad assay. Radioligand binding assays were performed in a 200 μl volume.
Incubations were for 60 min at 25° C. and were terminated by the addition of 4 ml of ice-cold 50 mM TRIS-HCl followed by rapid filtration through Whatman GF/B filters and three additional 4 ml washes in a cell harvester (Brandel).

[2] = target: T2, recombinant feline FP receptor (Felis catus, UniProt A0ABI7XJ69); assay: Radioligand binding competition vs 3H-17-phenyl PGF2α, recombinant feline FP receptor; parameters: species or system cat
T2 sequence (A0ABI7XJ69 entry or part of it): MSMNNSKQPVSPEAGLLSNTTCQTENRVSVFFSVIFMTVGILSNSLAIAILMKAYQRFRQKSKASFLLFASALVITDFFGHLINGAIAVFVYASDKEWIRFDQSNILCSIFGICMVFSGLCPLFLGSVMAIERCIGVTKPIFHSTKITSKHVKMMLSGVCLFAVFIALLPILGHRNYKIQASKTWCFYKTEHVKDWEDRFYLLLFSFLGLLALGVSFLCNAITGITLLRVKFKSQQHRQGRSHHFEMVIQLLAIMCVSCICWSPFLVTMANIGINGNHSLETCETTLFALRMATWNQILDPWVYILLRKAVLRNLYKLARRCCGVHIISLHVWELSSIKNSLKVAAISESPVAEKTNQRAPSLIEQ
Method: as §1, with “TME is comprised of 100 mM TRIS base, 20 mM Mg Cl2, 2 m EDTA; physiological pH is achieved by adding 10 N HCl.” left out, “[…] Incubations” for “Radioligand binding assays”, “for 60 min at 25° C. and were terminated by the addition of 4 ml of ice-cold 50 mM TRIS-HCl followed by rapid filtration through Whatman GF/B filters and three additional 4 ml washes” for “performed”, “cell harvester (Brandel).” for “200 μl volume.”

[3] = target: T2, recombinant feline FP receptor; assay: Total inositol phosphate accumulation, HEK-293 cells with recombinant feline FP receptor; format: cell-based, cat; settings: read-out: E.C.50, total inositol phosphate accumulation
Method: Ten days after transfection, hygromycin B resistant clones were individually selected and transferred to a separate well on a 24 well plate. At confluence each clone was transferred to one well of a 6 well plate, and then expanded in a 10 cm dish. Cells were maintained under continuous hygromycin selection until use. The stable cat FP receptor transfectants were similarly prepared using […]. Again cells were grown to 50-60% confluency on 10 cm plates and the plasmid pCEP4, incorporating cDNA inserts for the feline FP receptor, was transfected using lipofectin. Hygromycin B selection was started 48 hr post-transfection. Eight days after transfection, hygromycin B resistant clones were selected and transferred to 24 well plates. Ca^2+ signaling studies on recombinant cat and human FP receptors were performed in an identical manner to that described for the CRL 1497 cell studies.
Receptor-mediated phosphoinositide (PI) hydrolysis was determined by measuring the accumulation of total inositol phosphates (IP) in cells preincubated with ^3H-myoinositol. Stable cell lines of HEK 293 cells expressing human or cat FP receptors were plated in 10 cm dishes (10^6 cells per dish in DMEM with 10% FBS). […] The eluate was mixed with 10 ml Aquasol scintillation fluid (Packard Instrument Co.) and total [^3H] inositol phosphates was determined by a liquid scintillation counter.

[4] = target: T1, human FP receptor; assay: Total inositol phosphate accumulation, HEK-293 cells with recombinant human FP receptor; format: cell-based; parameters: expressed in transfected cells; settings: for % maximal total inositol phosphate accumulation mean χ ± SEM: reference 17-phenyl PGF2α 10^−6 M
Method: HEK-293 cells were grown in DMEM with 10% fetal bovine serum (FBS), 250 μg ml^−1 G418 (Life Technologies) and 200 μg ml^−1 gentamicin or penicillin/streptomycin. […] For transfection, the cells were grown to 50-60% confluency on 10 cm plates. The plasmid pCEP4 incorporating cDNA inserts for the human FP receptor (20 μg) was added to 500 μl of 250 mM CaCl2. HEPES buffered saline×2 (2×HBSS, 280 mM NaCl, 20 mM HEPES acid, 1.5 mM Na2 HPO4, pH 7.05-7.12) was then added dropwise to a […], with continuous vortexing at room temperature. After 30 min, 9 ml DMEM were added to the mixture. The DNA/DMEM/calcium phosphate mixture was then added to the cells, which had been previously rinsed with 10 ml phosphate buffered saline (PBS). The cells were then incubated for 5 h. at 37° C. in humidified 95% air/5% CO2. The calcium phosphate solution was then removed and the cells were treated with 10% glycerol in DMEM for 2 min. The glycerol solution was then replaced by DMEM with 10% fetal bovine serum (FBS). The cells were incubated overnight and the medium was replaced by DMEM/10% FBS containing 250 μg ml^−1 G418 and penicillin/streptomycin. The following day hygromycin B was added to a final concentration of 200 μg ml^−1.
Receptor-mediated phosphoinositide (PI) hydrolysis was determined by measuring the accumulation of total inositol phosphates (IP) in cells preincubated with ^3H-myoinositol. Stable cell lines of HEK 293 cells expressing human or cat FP receptors were plated in 10 cm dishes (10^6 cells per dish in DMEM with 10% FBS). The following day, the cells were incubated with 18 μCi myo-[2 ^3H] inositol (Amersham; […]) in 6 ml of DMEM with 10% FBS for 24 hours at 37° C. The cells were then rinsed twice with phosphate buffered saline (PBS), incubated for 5 min with 1 ml of trypsin-EDTA, and suspended in 10 ml DMEM containing 25 mM HEPES buffer. Cells were pelleted at 1000 rpm and resuspended in DMEM/25 mM HEPES containing 10 mM LiCl for 10 minutes. Aliquots of 200 μl cell suspension were incubated with 50 μl drug for 30 minutes at 37° C. (duplicate determination), and agonist stimulation was terminated with a 750 μl mixture of chloroform:methanol:4N HCl (100:200:2), followed by addition of 250 μl of chloroform and 0.5 N HCl for extraction of inositol phosphates. A 750 μl volume of the aqueous layer was loaded on columns packed with 0.5 ml of Dowex AG 1-X8 anion-exchange resin (formate form, 100-200 mesh; BioRad) to separate radiolabeled components. The elution procedure consisted of three 3 ml washes with 5 mM inositol, then two elutions with 750 μl of 1.3 M ammonium formate with 0.1 M formic acid. The eluate was mixed with 10 ml Aquasol scintillation fluid (Packard Instrument Co.) and total [^3H] inositol phosphates was determined by a liquid scintillation counter.

T1 sequence (P43088 whole entry): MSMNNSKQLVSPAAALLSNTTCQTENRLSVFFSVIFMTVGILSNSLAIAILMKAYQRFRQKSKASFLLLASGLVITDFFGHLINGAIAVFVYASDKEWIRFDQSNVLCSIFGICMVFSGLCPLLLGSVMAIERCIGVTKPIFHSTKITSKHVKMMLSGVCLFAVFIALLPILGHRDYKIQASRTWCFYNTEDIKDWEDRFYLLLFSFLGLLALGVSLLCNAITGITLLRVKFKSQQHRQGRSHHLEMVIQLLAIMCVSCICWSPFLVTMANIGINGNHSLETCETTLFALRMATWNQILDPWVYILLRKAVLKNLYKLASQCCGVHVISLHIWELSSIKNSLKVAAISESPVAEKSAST

O=C(O)CCC/C=C\C[C@@H]1[C@@H](/C=C/[C@@H](O)CCc2ccccc2)[C@H](O)C[C@@H]1O [17-phenyl PGF2α, 17-phenyl prostaglandin F2α, reference compound]
% specific binding mean χ ± SEM ([1]; 10^−5 M): 0 ± 0% | % specific binding mean χ ± SEM ([1]; 10^−6 M): 1.7 ± 1.7% | % specific binding mean χ ± SEM ([1]; 10^−7 M): 5.3 ± 1.5% | % specific binding mean χ ± SEM ([1]; 10^−8 M): 24.0 ± 1.2% | % specific binding mean χ ± SEM ([1]; 10^−9 M): 65.0 ± 1.0% | % specific binding mean χ ± SEM ([1]; 10^−10 M): 98 ± 1.1% | pIC50 ([1]; vs 5 nM 3H-17-phenyl PGF2α, human FP receptor, read-out: I.C.50, radioligand binding): 8.64 | affinity for the feline receptor ([2]; radioligand binding): high affinity | pIC50 ([2]; vs 5 nM 3H-17-phenyl PGF2α, feline FP receptor, read-out: inhibitory concentration50 (I.C.50), radioligand binding): 7.36 | pEC50 [3]: 8.05 | % maximal total inositol phosphate accumulation mean χ ± SEM ([4]; 10^−6 M): 100 ± 1.3% | % maximal total inositol phosphate accumulation mean χ ± SEM ([4]; 10^−7 M): 92.3 ± 0.9% | % maximal total inositol phosphate accumulation mean χ ± SEM ([4]; 10^−8 M): 57.8 ± 2.0% | % maximal total inositol phosphate accumulation mean χ ± SEM ([4]; 10^−9 M): 14.7 ± 3.3% | pEC50 ([4]; HEK-293 cells, recombinant human FP receptor, read-out: E.C.50, total inositol phosphate accumulation): 8.10
